Data on six compounds can be found in paper PMC5306082, “Physiologically based kinetic modeling of the bioactivation of myristicin” (Archives of Toxicology, 2016).

As usually defined, the Km is the substrate concentration at which the rate is half of its maximum.

A short description of data set [1]: Glucuronidation of 1′-hydroxymyristicin, male rat liver S9. It is filed as in vitro ADME. The protocol:
(§1) The kinetic constants for the metabolic conversion of 1′-hydroxymyristicin to 1′-hydroxymyristicin glucuronide (HMG) by both male rat and human liver fractions were determined as described previously for the related 1′-hydroxyalkenylbenzenes (Punt et al. [2008]; van den Berg et al. [2012]; Punt et al. [2009]; Martati et al. [2011], [2012]; Al-Subeihi et al. [2011], [2012]). Briefly, incubations contained (final concentrations) 10 mM of UDPGA and 0.5 mg/ml of male Sprague–Dawley or pooled gender human S9 protein in 0.2 M Tris–HCl (pH 7.4) containing 10 mM of MgCl2. To overcome enzyme latency and to obtain maximal glucuronidation activity, incubations containing S9 were pretreated on ice with 0.025 mg/ml alamethicin added from a 200 times concentrated stock dissolved in methanol (Fisher et al. [2000]; Lin and Wong [2002]). After 15 min of alamethicin treatment, samples were pre-incubated at 37 °C for 1 min, and reactions were subsequently started by adding 1′-hydroxymyristicin at final concentrations of 10 to 1200 μM. 1′-Hydroxymyristicin was added from 100 times concentrated stock solutions in DMSO. The reaction mixtures were incubated for 30 and 180 min for rat and human, respectively, and terminated by adding 25 µl (0.25 times the incubation volume) of ice-cold ACN. Blank incubations were carried out in the absence of the cofactor UDPGA. Experiments were performed in triplicate. The longer incubation time in human samples was required due to the lower rate of glucuronidation. The formation of 1′-hydroxymyristicin glucuronide was linear with time and the S9 protein concentration under the experimental conditions described. All samples were centrifuged for 5 min at 16,000×g, and the supernatant was stored at −20 °C until ultra-performance liquid chromatography (UPLC) analysis.
(§2) 1′-Hydroxymyristicin glucuronide was estimated based on the comparison of the peak area of the formed metabolite to the calibration curve of 1′-hydroxymyristicin at a wavelength of 210 nm. The flow rate was 0.6 ml/min. The gradient was made using a mixture of ACN and ultrapure water containing 0.1 % (v/v) TFA.

A short description of data set [2]: Glucuronidation of 1′-hydroxymyristicin, human liver S9. In kind it is in vitro ADME. Here is the method: as §1, §2
For data set [3], the system named is DNA. Conditions: ref Zhou et al. [2007a]; Kobets et al. [2016]; Phillips et al. [1984]; Randerath et al. [1984]; cited from earlier work.
In data set [4] the test system is freshly isolated rat hepatocytes in primary culture. Conditions: 10^−6 to 10^−3 M; ref Howes et al. [1990]; cited from earlier work.
A short description of data set [5]: Oxidation of 1′-hydroxymyristicin to 1′-oxomyristicin, rat liver microsomes. In kind it is in vitro ADME. The protocol: (§3) The kinetic constants for the enzymatic conversion of 1′-hydroxymyristicin to 1′-oxomyristicin were determined using incubation mixtures containing (final concentrations) 3 mM NAD^+, 2 mM GSH, and 1 mg/ml rat or human liver microsomes in 0.2 M Tris–HCl (pH 7.4). GSH was added to the incubation mixtures to trap the reactive 1′-oxo metabolite formed after oxidation of 1′-hydroxymyristicin. The level of GSH in the incubations was optimized in a previous study to obtain maximum scavenging of 1′-oxoestragole (Punt et al. [2009]). To this end, incubations were performed in the presence of increasing concentrations of GSH, ranging from 2 to 10 mM. […] Kinetic constants for this reaction in rat and human liver were derived by performing incubations with NAD^+ as a cofactor, given that in rat and human liver, NAD^+ is mainly present in an oxidized form with levels of NAD^+ being much higher than those of NADH. In a previous study, it was shown that the highest level of 1′-hydroxy alkenylbenzene oxidation occurs in incubations with microsomes in the presence of NAD^+ as cofactor. […] The enzyme responsible for the oxidation may be 17β-hydroxysteroid dehydrogenase type 2 (17β-HSD2) (Punt et al. [2010]). Prior to the addition of 1′-hydroxymyristicin at final concentrations ranging between 10 and 4000 μM to the incubation mixture from 100 times concentrated stock solutions in DMSO, samples were pre-incubated for 1 min at 37 °C. Reactions were terminated after 10 min of incubation at 37 °C by adding 25 μl (0.25 times the incubation volume) of ice-cold ACN. The formation of the GSH conjugate of 1′-oxomyristicin (GS-1′-oxomyristicin) was linear with time and microsomal protein concentration under the experimental conditions used. Blank incubations were performed without the cofactor NAD^+. Incubations were performed in triplicate. All samples were centrifuged for 5 min at 13,000×g, and the supernatant was stored at −20 °C until UPLC analysis.
(§4) Quantification of GS-1′-oxomyristicin was based on a calibration curve of the GSH adduct of the synthesized 1′-oxymyristicin made as previously described (van den Berg et al. [2012]; Punt et al. [2009]; Martati et al. [2011]; Al-Subeihi et al. [2011]). In short, a 60 μM concentration of the synthetic standard of 1′-oxomyristicin, dissolved in ACN, was incubated with different concentrations of GSH (i.e., 0–20 μM) in 0.2 M Tris–HCl (pH 7.4) for 6 h at 37 °C, resulting in full conversion of the GSH to GS-1′-oxymyristicin. Quantification was done by comparing the peak areas of the formed GS-1′-oxo metabolite in the incubation mixtures with peak areas of the GS-1′-oxymyristicin calibration curve thus obtained at a wavelength of 212 nm. The gradient for analysis of the metabolite consisted of a mixture of ACN and ultrapure water containing 0.1 % (v/v) TFA. The flow rate was 0.6 ml/min, The gradient started with 10 % ACN, increased to 30 % ACN over 2.5 min, after which ACN was increased to 80 % over 0.5 min, kept at 80 % for 0.5 min, followed by a decrease to 10 % over 0.5 min, and finally kept at 10 % for 0.5 min.
For orientation: Liver microsomes are a subcellular fraction often used to study metabolism.

The nature of data set [6]: Oxidation of 1′-hydroxymyristicin to 1′-oxomyristicin, human liver microsomes. It is filed as in vitro ADME. Here is the method:
as §3, §4

The nature of data set [7]: Microsomal conversion of myristicin, male rat liver microsomes. In kind it is in vitro ADME. The note with it: for Vmax / In vitro catalytic efficiency: formation of the metabolite from myristicin; for Vmax: NADPH, mean of three ± SD; for In vitro catalytic efficiency: Vmax/Km × 1000; for Scaled Vmax, in vivo / In vivo catalytic efficiency: from myristicin; for Scaled Vmax, in vivo: microsomal protein yield 35 mg/g liver; for In vivo catalytic efficiency: scaled Vmax/Km. Here is the method:
(§5) First, it was determined which organs are involved in the biotransformation of myristicin in rat and human. For this purpose, liver, kidney, lung, and small intestine microsomes from male Sprague–Dawley rat and pooled gender human were used. Incubations were performed by adding myristicin to incubation mixtures containing 1 mg/mL of the microsomal protein preparations and 3 mM NADPH in 0.2 M Tris–HCl (pH 7.4). After 1 min of pre-incubation at 37 °C, myristicin (final concentration, 1000 μM) was added from a 100 times concentrated stock solution in DMSO so that the final DMSO content was 1 % (v/v). Incubations were carried out for 30 min after which the reactions were terminated by adding 25 µl (0.25 times the incubation volume) of ice-cold ACN. Samples were centrifuged for 5 min at 13,000×g, and the supernatant was stored at −20 °C until UPLC analysis. As metabolism of myristicin was observed only in incubations with liver microsomes for male rats and pooled gender human, the determination of kinetic constants for the formation of microsomal metabolites was performed only for the liver fractions. Incubations to determine kinetic constants were performed following the conditions described above using final concentrations of myristicin from 25 to 1000 μM for rat and human liver. In all incubations, the final concentration of DMSO, in which myristicin was dissolved, was kept at 1 % (v/v). The formation of different microsomal metabolites was linear with time and microsomal protein concentration under the conditions described. Blank incubations were performed in the absence of the cofactor NADPH. All incubations were performed in triplicate.
(§6) Secondary metabolism of the relevant 1′-hydroxy metabolite of myristicin was taken into account by determining the kinetic constants for its conversion in (a) glucuronidation, (b) sulfation, and (c) oxidation, again under conditions that allowed adequate definition of kinetic constants and with <10 % substrate conversion. Incubation samples were subjected to UPLC analysis that was performed as described previously (Punt et al. [2008]). Identification was achieved by comparing the UV spectra of the formed metabolites to the spectra of the synthesized 1′-hydroxymyristicin and 1′-oxomyristicin reference standards. Quantification of all formed metabolites was done by comparing the peak areas to those of calibration curves of the corresponding reference compounds, determined using UPLC with photodiode array detection (UPLC-PDA). The UPLC system was composed of a Waters (Waters, Milford, MA) Acquity solvent manager, sample manager, and photodiode array detector, equipped with Water Acquity UPLC BEH C18 column.
(§7) The gradient for analysis of microsomal metabolites was performed with 100 % ACN and ultrapure water containing 0.1 % (v/v) TFA. The flow rate was 0.6 ml/min. The gradient started at 10 % ACN, increased to 50 % ACN over 4 min, increased to 80 % over 0.5 min, followed by decrease to 10 % ACN over 0.5 min, and finally kept at 10 % for 1 min.

A short description of data set [8]: Microsomal conversion of myristicin, human liver microsomes. In kind it is in vitro ADME. Conditions: for Vmax / In vitro catalytic efficiency: formation of the metabolite from myristicin; for Vmax: NADPH, mean of three ± SD; for In vitro catalytic efficiency: Vmax/Km × 1000; for Scaled Vmax, in vivo / In vivo catalytic efficiency: from myristicin; for Scaled Vmax, in vivo: microsomal protein yield 32 mg/g liver; for In vivo catalytic efficiency: scaled Vmax/Km. Here is the method:
as §5, §6, §7

The mark [9] stands for this setting: 1′-hydroxymyristicin to its glucuronide, S9, UDPGA.
Setting [10] is: 1′-hydroxymyristicin to its glucuronide, Vmax/Km.
Where [11] appears, read: glucuronidation of 1′-hydroxymyristicin, S9 protein yield 143 mg/g liver.
[12] abbreviates: glucuronidation of 1′-hydroxymyristicin, scaled Vmax/Km.
Setting [13] is: 1′-hydroxymyristicin to 1′-oxomyristicin, Vmax/Km.
Setting [14] is: 1′-hydroxymyristicin to 1′-oxomyristicin, microsomes, NAD+, GSH trapping.
The mark [15] stands for this setting: oxidation of 1′-hydroxymyristicin, scaled Vmax/Km.

In the case of `C=CC(OC1OC(C(=O)O)C(O)C(O)C1O)c1cc(OC)c2c(c1)OCO2` (stereo not shown) [1′-Hydroxymyristicin glucuronide, 1′-hydroxymyristicin glucuronide], the Vmax is reported as 8.6 ± 2.0 nmol min^−1 (mg microsomal or S9 protein)^−1 in data set [1] (setting [9]) and 0.08 ± 0.03 nmol min^−1 (mg microsomal or S9 protein)^−1 in data set [2] (setting [9]). The “In vitro catalytic efficiency” value was 10.287 μl min^−1 (mg microsomal or S9 protein)^−1 in data set [1] (setting [10]) and 0.025 μl min^−1 (mg microsomal or S9 protein)^−1 in data set [2] (setting [10]). In addition, the “Scaled Vmax, in vivo” value in data set [1] (setting [11]) is recorded as 73.788 μmol/h/g tissue; in data set [2] (setting [11]) it was 0.6864 μmol/h/g tissue. For the same compound, the “In vivo catalytic efficiency” value in data set [1] (setting [12]) was 0.0883 ml/h/g tissue; in data set [2] (setting [12]), 0.0002 ml/h/g tissue. The Km at 30 min in data set [1] (male, Sprague-Dawley, rat, pH 7.4) is 836 ± 336 µM. For the same compound, in data set [2] (both sexes, human, pH 7.4), the Km at 180 min was 3140 ± 2430 µM.
Regarding `C=CCc1ccc(OC)cc1` [estragole], in data set [3], the “DNA adduct formation, result” value is recorded as “positive results”.
In the case of `C=CCc1ccc(OC)c(OC)c1` [methyleugenol], the “unscheduled DNA synthesis (UDS)” value in data set [4] is reported as “induced unscheduled DNA synthesis (UDS)”. Besides, the “DNA adduct formation, result” value in data set [3] is “positive results”.
As for `C=CC(=O)c1cc(OC)c2c(c1)OCO2` [1′-Oxomyristicin, 1′-oxomyristicin], the “In vitro catalytic efficiency” value in data set [5] (setting [13]) is 7.369 μl min^−1 (mg microsomal or S9 protein)^−1; in data set [6] (setting [13]) it was 9.864 μl min^−1 (mg microsomal or S9 protein)^−1. For the same compound, the values for the Vmax in data set [5] (setting [14]) and in data set [6] (setting [14]) were 43.64 ± 20.9 nmol min^−1 (mg microsomal or S9 protein)^−1 and 32 ± 14 nmol min^−1 (mg microsomal or S9 protein)^−1, respectively. Further, the “Scaled Vmax, in vivo” value in data set [5] (oxidation of 1′-hydroxymyristicin, microsomal protein yield 35 mg/g liver) is 91.644 μmol/h/g tissue; in data set [6] (oxidation of 1′-hydroxymyristicin, microsomal protein yield 32 mg/g liver), 61.44 μmol/h/g tissue. Further, the “In vivo catalytic efficiency” value in data set [5] (setting [15]) was found to be 0.0155 ml/h/g tissue; in data set [6] (setting [15]), 0.0189 ml/h/g tissue.
For the compound `COc1cc(CC(O)CO)cc2c1OCO2` (stereo not shown) [2′,3′-Dihydroxymyristicin], in data set [7], the Vmax is recorded as 0.44 ± 0.08 nmol min^−1 (mg microsomal or S9 protein)^−1; the “In vitro catalytic efficiency” value is on record as 27.5 μl min^−1 (mg microsomal or S9 protein)^−1; the “Scaled Vmax, in vivo” value amounted to 0.924 μmol/h/g tissue; the “In vivo catalytic efficiency” value worked out at 0.0578 ml/h/g tissue. In addition, in data set [8], the Vmax is recorded as 0.08 ± 0.01 nmol min^−1 (mg microsomal or S9 protein)^−1; the “In vitro catalytic efficiency” value is on record as 2.424 μl min^−1 (mg microsomal or S9 protein)^−1; the “Scaled Vmax, in vivo” value amounted to 0.154 μmol/h/g tissue; the “In vivo catalytic efficiency” value was determined as 0.0047 ml/h/g tissue.
Consider `COc1cc(/C=C/CO)cc2c1OCO2` [3′-Hydroxymyristicin, 3′-hydroxymyristicin], for which, in data set [7], the Vmax was 0.47 ± 0.09 nmol min^−1 (mg microsomal or S9 protein)^−1; the “In vitro catalytic efficiency” value is listed as 5.663 μl min^−1 (mg microsomal or S9 protein)^−1; the “Scaled Vmax, in vivo” value came to 0.987 μmol/h/g tissue; the “In vivo catalytic efficiency” value is recorded as 0.0119 ml/h/g tissue. Moreover, in data set [8], the Vmax was 0.29 ± 0.14 nmol min^−1 (mg microsomal or S9 protein)^−1; the “In vitro catalytic efficiency” value is 0.178 μl min^−1 (mg microsomal or S9 protein)^−1; the “Scaled Vmax, in vivo” value was found to be 0.557 μmol/h/g tissue; the “In vivo catalytic efficiency” value was 0.0003 ml/h/g tissue.
